The experiment has as its target T1, GPR73 (prokineticin 1 receptor) (Homo sapiens, UniProt Q8TCW9).
T1 construct: expressed in transfected cells; host or cells: HEK 293
As to the kind of experiment: PK1 functional assay: Ca2+ mobilization screening for PK1 antagonists on the FLIPR. The class given is cell-based. The conditions noted are these: HEK 293 GPR73 cells, multiple values = multiple testing; for inhibition at 10 µM: HEK293, 10 μM compound, read-out: Ca^2+ Mobilization % Inh @ 10 μM; for IC50: PK1 ligand preparation at its EC50, read-out: Ca^2+ Mobilization IC50; for Ca^2+ Mobilization % Inh @ 10 μM: 10 μM compound. The gist of the method: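 HEK293 cells expressing human GPR73 were loaded with Calcium Plus dye, then on FLIPR given compound for 4 min 15 s before PK1 ligand at its predetermined EC50. Baseline-subtracted fluorescence over 1 min 45 s gave percent inhibition versus maximal signal; IC50 fitted.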

Values joined by “and” are separate entries in the source; they are usually repeats but may differ in a detail not shown here. Equal entries are not always repeated. A value given as a limit tells only on which side of the number the result lay.

T1 sequence (Q8TCW9 whole entry, species assumed): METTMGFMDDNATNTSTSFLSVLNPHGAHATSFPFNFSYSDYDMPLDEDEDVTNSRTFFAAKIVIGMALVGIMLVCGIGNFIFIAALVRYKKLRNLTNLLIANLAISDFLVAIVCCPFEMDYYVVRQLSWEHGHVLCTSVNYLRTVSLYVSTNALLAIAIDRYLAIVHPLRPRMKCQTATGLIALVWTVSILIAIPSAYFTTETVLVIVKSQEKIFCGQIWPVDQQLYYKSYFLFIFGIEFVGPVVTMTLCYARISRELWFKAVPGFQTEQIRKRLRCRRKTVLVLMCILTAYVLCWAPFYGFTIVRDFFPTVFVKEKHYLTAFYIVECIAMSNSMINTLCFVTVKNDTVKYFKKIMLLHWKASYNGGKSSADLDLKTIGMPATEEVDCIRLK

With `COc1ccc(Cn2c(NCc3cnc(C)cc3C)nc(=O)n(Cc3ccc(C(F)(F)F)cc3)c2=O)cc1` [Cpd 110], the inhibition at 10 µM stood at 48% and the IC50 turned out to be 9070 nM.
Take `COc1ccc(Cn2c(NCc3cnc(C)cc3C)nc(=O)n(Cc3cccc(OC)c3)c2=O)cc1` [Cpd 111]: the inhibition at 10 µM amounted to 57% and the IC50 turned out to be 7880 nM.
In the same order, the values of `COc1ccc(Cn2c(NCc3cnc(C)cc3C)nc(=O)n(Cc3cccc(F)c3)c2=O)cc1` [Cpd 112] are 74% and 2550 nM.
In the same order, the values of `COC(=O)c1ccc(Cn2c(=O)nc(NCc3cnc(C)cc3C)n(Cc3ccc(OC)cc3)c2=O)cc1` [Cpd 114] are 48% and 6310 nM.
For `COc1ccc(Cn2c(NCc3cccc(N)n3)nc(=O)n(Cc3ccc(OC)cc3)c2=O)cc1` [Cpd 115, 6-[(6-Amino-pyridin-2-ylmethyl)-amino]-1,3-bis-(4-methoxy-benzyl)-1H-[1,3,5]triazine-2,4-dione] the same measures were 98% and 244 nM.
As to `COc1ccc(Cn2c(=O)nc(NCc3cnc(C)cc3C)n(Cc3ccc(F)cc3)c2=O)cc1` [Cpd 116], the inhibition at 10 µM stood at 95% and the IC50 was found to be 391 nM.
For `COc1ccc(Cn2c(=O)nc(NCc3cnc(C)cc3C)n(Cc3ccc(Cl)cc3)c2=O)cc1` [Cpd 117] the same measures were 97% and 218 nM.
With `COc1ccc(Cn2c(NCc3c[n+]([O-])c(C)cc3C)nc(=O)n(Cc3ccc(OC)cc3)c2=O)cc1` [Cpd 118], the inhibition at 10 µM turned out to be 80% and the IC50 amounted to 1370 nM.
In the same order, the values of `COc1ccc(Cn2c(NCc3cccnc3N)nc(=O)n(CCc3c[nH]c4ccccc34)c2=O)cc1` [Cpd 119] are 40% and more than 10000 nM.
In the same order, the values of `COc1ccc(Cn2c(NCc3cccnc3N)nc(=O)n(CC3COc4ccccc4O3)c2=O)cc1` (stereo not drawn) [Cpd 120] are 40% and more than 10000 nM.
As to `COc1ccc(Cn2c(OCc3cccnc3)cc(=O)n(Cc3ccc(OC)cc3)c2=O)cc1` [Cpd 121, 1,3-Bis-(4-methoxy-benzyl)-6-(pyridin-3-ylmethoxy)-1H-pyrimidine-2,4-dione], the inhibition at 10 µM is 58% and the IC50 was found to be 6330 nM.
As for `COc1ccc(Cn2c(NCc3ccc(C(F)(F)F)nc3)nc(=O)n(Cc3ccc(OC)cc3)c2=O)cc1` [Cpd 122], the inhibition at 10 µM came to 76% and the IC50 was found to be 194 nM.
For `COc1ccc(Cn2c(NCc3cnc(C)cc3C)nc(=O)n(Cc3ccc4c(c3)CCO4)c2=O)cc1` [Cpd 123, 3-(2,3-Dihydro-benzofuran-5-ylmethyl)-6-[(4,6-dimethyl-pyridin-3-ylmethyl)-amino]-1-(4-methoxy-benzyl)-1H-[1,3,5]triazine-2,4-dione] the same measures were 83% and 684 nM.
In the same order, the values of `COc1ccc(Cn2c(NCc3cccnc3N)nc(=O)n(Cc3ccc(OC)c([N+](=O)[O-])c3)c2=O)cc1` [Cpd 124] are 61% and 815 nM.
With `COc1ccc(Cn2c(=O)nc(NCc3cccnc3N)n(Cc3ccc4c(c3)CCO4)c2=O)cc1` [Cpd 125], the “Ca^2+ Mobilization % Inh @ 10 μM” value is reported as 99%; the inhibition at 10 µM worked out at 97%; the concentration for half-maximal inhibition (IC50) is 54 nM and 14 nM.
`COc1ccc(Cn2c(=O)nc(NCc3cccnc3N)n(Cc3ccc4occc4c3)c2=O)cc1` [Cpd 126]: the inhibition at 10 µM is 89% and the concentration for half-maximal inhibition (IC50) was found to be 232 nM.
In the same order, the values of `COc1ccc(Cn2c(=O)nc(NCc3cccnc3N)n(Cc3ccc4[nH]ccc4c3)c2=O)cc1` [Cpd 127] are 81% and 607 nM.
Turning to `COc1ccc(Cn2c(=O)nc(NCc3cnc(C)cc3C)n(Cc3ccc4c(c3)CCO4)c2=O)cc1` [Cpd 128], the “Ca^2+ Mobilization % Inh @ 10 μM” value was found to be 98%; the inhibition at 10 µM amounted to 93%; the IC50 was 126 nM and 214 nM.
For the molecule `COc1ccc(Cn2c(=O)nc(NCc3cnc(C)cc3C)n(Cc3ccc4occc4c3)c2=O)cc1` [Cpd 129], the inhibition at 10 µM is 88% and the 50% inhibitory concentration (IC50) is 120 nM.
For `COc1ccc(Cn2c(=O)nc(NCc3cnc(C)cc3C)n(Cc3ccc4[nH]ccc4c3)c2=O)cc1` [Cpd 130] the same measures were 92% and 245 nM.
In the same order, the values of `COc1ccc(Cn2c(=O)nc(NCc3cccnc3N)n(Cc3ccc(S(C)(=O)=O)cc3)c2=O)cc1` [Cpd 131] are 100% and 122 nM.
In the same order, the values of `COc1ccc(Cn2c(=O)nc(NCc3cnc(C)cc3C)n(Cc3ccc(S(C)(=O)=O)cc3)c2=O)cc1` [Cpd 132] are 79% and 247 nM.
Turning to `COc1ccc(Cn2c(NCc3cnc(C)cc3C)nc(=O)n(Cc3ccc4occc4c3)c2=O)cc1` [Cpd 133], the inhibition at 10 µM came out at 88% and the half-inhibitory concentration (IC50) was 582 nM.
`COc1ccc(Cn2c(NCc3cccnc3N)nc(=O)n(Cc3ccc4occc4c3)c2=O)cc1` [Cpd 134]: the inhibition at 10 µM was determined as 86% and the 50% inhibitory concentration (IC50) was 225 nM.
For `COc1ccc(Cn2c(=O)nc(NCc3cccnc3N)n(Cc3ccc(OC(C)(C)C)cc3)c2=O)cc1` [Cpd 135] the same measures were 94% and 186 nM.
As to `COc1ccc(Cn2c(=O)nc(NCc3cnc(C)cc3C)n(Cc3ccc(OC)c([N+](=O)[O-])c3)c2=O)cc1` [Cpd 136], the “Ca^2+ Mobilization % Inh @ 10 μM” value is on record as 102%; the inhibition at 10 µM came to 92%; the IC50 was 15 nM and 34 nM.
Turning to `COc1ccc(Cn2c(=O)nc(NCc3cccnc3N)n(Cc3ccc(OC)c([N+](=O)[O-])c3)c2=O)cc1` [Cpd 137], the inhibition at 10 µM stood at 68% and the IC50 was 1040 nM.
For `COc1ccc(Cn2c(=O)nc(NCc3cccnc3N)n(Cc3cccc4[nH]ccc34)c2=O)cc1` [Cpd 138], the “Ca^2+ Mobilization % Inh @ 10 μM” value turned out to be 73%; the inhibition at 10 µM worked out at 61%; the IC50 was 1510 nM and 2700 nM.
`COc1ccc(Cn2c(=O)nc(NCc3cnc(C)cc3C)n(Cc3cccc4[nH]ccc34)c2=O)cc1` [Cpd 139]: the “Ca^2+ Mobilization % Inh @ 10 μM” value is 97% and 100%; the inhibition at 10 µM stood at 92%.
In the case of `COc1ccc(Cn2c(=O)nc(NCc3cccnc3N)n(Cc3ccc4sccc4c3)c2=O)cc1` [Cpd 140], the inhibition at 10 µM came out at 91% and the IC50 turned out to be 192 nM.
For the molecule `COc1ccc(Cn2c(NCc3cccnc3N)nc(=O)n(CCOc3ccc(F)cc3)c2=O)cc1` [Cpd 141, 6-[(2-Amino-pyridin-3-ylmethyl)-amino]-3-[2-(4-fluoro-phenoxy)-ethyl]-1-(4-methoxy-benzyl)-1H-[1,3,5]triazine-2,4-dione], the inhibition at 10 µM came out at 82% and the IC50 worked out at 1130 nM.
Consider `COc1ccc(Cn2c(=O)nc(NCc3cnc(C)cc3C)n(Cc3ccc4sccc4c3)c2=O)cc1` [Cpd 142], for which the inhibition at 10 µM came to 76% and the half-maximal inhibitory concentration (IC50) worked out at 387 nM.
As to `COc1ccc(Cn2c(NCc3cccnc3N)nc(=O)n(Cc3ccccc3OC)c2=O)cc1` [Cpd 143], the inhibition at 10 µM came to 31% and the 50% inhibitory concentration (IC50) is more than 10000 nM.
For `COc1ccc(Cn2c(NCc3cnc(C)cc3C)nc(=O)n(Cc3ccccc3OC)c2=O)cc1` [Cpd 144] the same measures were 36% and more than 10000 nM.
Turning to `COc1ccc(Cn2c(NCc3cccnc3N)nc(=O)n(Cc3ccc4sccc4c3)c2=O)cc1` [Cpd 145], the inhibition at 10 µM was 90% and the concentration for half-maximal inhibition (IC50) is 317 nM.
In the same order, the values of `COc1ccc(Cn2c(NCc3cnc(C)cc3C)nc(=O)n(Cc3ccc4sccc4c3)c2=O)cc1` [Cpd 146] are 80% and 2140 nM.
For the molecule `CCCNc1cccc(CNc2nc(=O)n(Cc3ccc(OC)cc3)c(=O)n2Cc2ccc(OC)cc2)n1` [Cpd 147, 1,3-Bis-(4-methoxy-benzyl)-6-[(6-propylamino-pyridin-2-ylmethyl)-amino]-1H-[1,3,5]triazine-2,4-dione], the inhibition at 10 µM stood at 99% and the IC50 is 110 nM.
For `COc1ccc(Cn2c(NCc3cccc(N)n3)cc(=O)n(Cc3ccc(OC)cc3)c2=O)cc1` [Cpd 148, 6-[(6-Amino-pyridin-2-ylmethyl)-amino]-1,3-bis-(4-methoxy-benzyl)-1H-pyrimidine-2,4-dione] the same measures were 86% and 503 nM.
For `COc1ccc(Cn2c(=O)nc(NCc3cccnc3N)n(CC3CCC(OC)CC3)c2=O)cc1` (stereo not drawn) [Cpd 149] the same measures were 86% and 788 nM.
Consider `COc1ccc(Cn2c(=O)nc(NCc3cnc(C)cc3C)n(CC3CCC(OC)CC3)c2=O)cc1` (stereo not drawn) [Cpd 150], for which the inhibition at 10 µM came to 78% and the concentration for half-maximal inhibition (IC50) turned out to be 595 nM.
In the same order, the values of `COc1ccc(Cn2c(=O)nc(NCc3cccnc3N)n(Cc3ccc(Cl)c(Cl)c3)c2=O)cc1` [Cpd 151] are 60% and 2400 nM.
Turning to `COc1ccc(Cn2c(=O)nc(NCc3cnc(C)cc3C)n(Cc3ccc(N4C(=O)c5ccccc5C4=O)cc3)c2=O)cc1` [Cpd 152], the inhibition at 10 µM stood at 91% and the half-inhibitory concentration (IC50) amounted to 240 nM.
For `COC(=O)CCCn1c(NCc2cnc(C)cc2C)nc(=O)n(Cc2ccc(OC)cc2)c1=O` [Cpd 153] the same measures were 81% and 703 nM.
Consider `COc1ccc(Cn2c(NCCc3ccccn3)nc(=O)n(Cc3ccc(OC)cc3)c2=O)cc1` [Cpd 154], for which the “Ca^2+ Mobilization % Inh @ 10 μM” value is reported as 80%; the inhibition at 10 µM is 79%; the IC50 is 657 nM and 952 nM.

What is called IC50 is the point on the concentration scale where inhibition reaches its midpoint.

Source of the values: US20080287445A1, “Prokineticin 2 receptor antagonists” (priority 2005, published 2008).
